From US7973219B2, “Method for producing transgenic plants resistant to weed control compounds which disrupt the porphyrin pathways of plants” (Sumitomo Chemical Company, Limited, priority 1998, dated 2011) come the findings set out here.

What all share (assay type): cell-based, Escherichia coli
In experiment [1] the test system is E. coli BT3/pACYCSP+pHASYS strain. As to the kind of experiment: Growth of E. coli BT3/pACYCSP+pHASYS with herbicidal compound. The settings on record: 1 ppm, 18 hours culture, Table 15. From the text:
According to the description of Gibson, L. C. D. et al., Proc. Natl. Acad. Sci. USA, 92; p 1941 (1995), the DNA fragment containing bchH gene prepared in Example 1 was digested with the restriction enzymes NdeI and BglII. The resultant DNA fragment was inserted between NdeI restriction site and BamHI restriction site of expression vector pET11a (manufactured by Stratagene) to obtain plasmid pETBCH (FIG. 1). This plasmid pETBCH was introduced into E. coli BL21(DE3) strain competent cells (manufactured by Stratagene) according to the manual attached to the competent cells to obtain E. coli BL21(DE3)/pETBCH strain. The strain was inoculated into 1.5 ml LB liquid culture medium (1% tryptone, 0.5% yeast extract, 0.5% NaCl) containing 100 μg/ml ampicillin in a tube (14×10 mm), and the tube was covered with aluminum foil (hereinafter referred to as dark conditions), cultured with shaking at 37° C. under light of fluorescent lamp (about 8000 lux). When the absorbance at 600 nm of the liquid culture medium became about 0.6, isopropyl β-D-thiogalactopyranoside (IPTG) was added to the liquid culture medium so that the final concentration was 0.4 mM, and the culture was continued for about additional 20 hours. […]

Experiment [2] concerns E. coli BT3/pACYCSP+pYAGY strain. Nature of the experiment: Growth of E. coli BT3/pACYCSP+pYAGY with herbicidal compound. The note with it: 1 ppm, 18 hours culture, Table 15.
For experiment [3], the system named is E. coli BT3/pACYCSP+pHASYS8 strain. Nature of the experiment: Growth of E. coli BT3/pACYCSP+pHASYS8 with herbicidal compound. The settings on record: 1 ppm, 18 hours culture, Table 16.
Experiment [4] relates to E. coli BT3/pACYCSP+pTVCRP strain. As to the kind of experiment: Growth of E. coli BT3/pACYCSP+pTVCRP (variant Chlamydomonas reinhardtii PPO) with herbicidal compound. The note with it: 18 hours culture, Table 9. The source says: According to the description of Gibson, L. C. D. et al., Proc. Natl. Acad. Sci. USA, 92; p 1941 (1995), the DNA fragment containing bchH gene prepared in Example 1 was digested with the restriction enzymes NdeI and BglII. The resultant DNA fragment was inserted between NdeI restriction site and BamHI restriction site of expression vector pET11a (manufactured by Stratagene) to obtain plasmid pETBCH (FIG. 1). This plasmid pETBCH was introduced into E. coli BL21(DE3) strain competent cells (manufactured by Stratagene) according to the manual attached to the competent cells to obtain E. coli BL21(DE3)/pETBCH strain. The strain was inoculated into 1.5 ml LB liquid culture medium (1% tryptone, 0.5% yeast extract, 0.5% NaCl) containing 100 μg/ml ampicillin in a tube (14×10 mm), and the tube was covered with aluminum foil (hereinafter referred to as dark conditions), cultured with shaking at 37° C. under light of fluorescent lamp (about 8000 lux). When the absorbance at 600 nm of the liquid culture medium became about 0.6, isopropyl β-D-thiogalactopyranoside (IPTG) was added to the liquid culture medium so that the final concentration was 0.4 mM, and the culture was continued for about additional 20 hours. […] In contrast to this, when E. coli BL21(DE3)/pETBCH strain was cultured according to the same manner (with IPTG) except that the tube was not covered with aluminum foil (hereinafter referred to as light conditions), E. coli grew and turned red as above.
Plasmids pTVCRP and pTV118N prepared in Example 16 were introduced into E. coli BT3/pACYCSP strain prepared in Example 3 respectively according to the method described in Hanahan, D. J., Mol. Biol., 166; p 557 (1983). E. coli BT3/pACYCSP+pTVCRP strain bearing plasmids pACYCSP and pTVCRP, and E. coli BT3/pACYCSP+pTV118N strain bearing plasmids pACYCSP and pTV118N were obtained by culturing the above strains in YPT medium containing 100 μg/ml ampicillin, 15 μg/ml chloramphenicol and 10 μg/ml kanamycin.
These E. coli strains were inoculated into YPT medium containing 10 or 1 ppm of the PPO inhibitory-type herbicidal compound represented by Structure 8, 100 μg/ml ampicillin. 15 μg/ml chloramphenicol, 10 μg/ml kanamycin, 10 μg/ml hemin and 50 μg/ml aminolevulinic acid, cultured under dark conditions or light conditions in the same manner as in Example 2. Then, 18 hours after initiation of culture, the absorbance of liquid culture medium was measured at 600 nm. By taking the absorbance of the medium containing no herbicidal compound as 1, the relative value of the absorbance of the medium containing the herbicidal compound was calculated.

Turning to `C#CCOc1cc(N2C(=O)C3=C(CCCC3)C2=O)c(F)cc1Cl` [Structure 8], the Relative absorbance in experiment [1] (in the dark) is recorded as 0.96; in experiment [1] (in the light), 0.65; in experiment [2] (in the dark), 0.99; in experiment [2] (in the light), 0.48; in experiment [3] (in the dark), 1.0; in experiment [3] (in the light), 0.57. In addition, the Relative absorbance in experiment [4] (in the dark, 1 ppm) is 0.82; in experiment [4] (in the dark, 10 ppm), 0.81; in experiment [4] (in the light, 1 ppm) it was 0.42; in experiment [4] (in the light, 10 ppm), 0.23.
